ChEMBL document CHEMBL5579789, “Azafuramidines as potential anticancer Agents: Pro-apoptotic profile and cell cycle arrest” (Bioorg Med Chem Lett, 2024)
Active and inactive are the calls of the source. The rule behind the calls is not given here.

How the values were obtained:
HepG2 [1] = assay: Inhibition of cell migration in human HepG2 cells assessed as wound confluence at IC50 concentration incubated for 24 hrs by scratch wound assay (reference value: 98.01 +/- 0.14 %); type: functional; parameters: scale not given: the % may be the effect or the level left
HepG2 [2] = assay: Induction of apoptosis in human HepG2 cells assessed as fold increase in p27 level by Western blot analysis; type: functional
HepG2 [3] = assay: Cell cycle arrest in human HepG2 cells assessed as accumulation of cells at S phase at IC50 concentration incubated for 48 hrs by PI staining based flow cytometric analysis (reference value: 21.0 %); type: functional
HepG2 [4] = assay: Inhibition of cell migration in human HepG2 cells assessed as wound confluence at IC50 concentration incubated for 10 hrs by scratch wound assay (reference value: 32.01 +/- 0.67 %); type: functional; parameters: scale not given: the % may be the effect or the level left
U2OS [5] = assay: Antiproliferative activity against human U2OS cells assessed as inhibition of cell growth; type: functional, cell-based
HepG2 [6] = assay: Induction of morphological changes in human HepG2 cells assessed as cell enlargement with vacuolated cytoplasm at IC50 concentration; type: functional, cell-based
U2OS [7] = assay: Induction of morphological changes in human U2OS cells assessed as appearance of dense nuclei at IC50 concentration; type: functional, cell-based
HepG2 [8] = assay: Cell cycle arrest in human HepG2 cells assessed as accumulation of cells at G0/G1 phase at IC50 concentration incubated for 48 hrs by PI staining based flow cytometric analysis (reference value: 58.2 %); type: functional
HepG2 [9] = assay: Induction of apoptosis in human HepG2 cells assessed as fold increase in p53 level by Western blot analysis; type: functional
HepG2 [10] = assay: Cell cycle arrest in human HepG2 cells assessed as accumulation of cells at G2/M phase at IC50 concentration incubated for 48 hrs by PI staining based flow cytometric analysis (reference value: 19.4 %); type: functional
HepG2 [11] = assay: Induction of morphological changes in human HepG2 cells assessed as appearance of dense nuclei at IC50 concentration; type: functional, cell-based
HepG2 [12] = assay: Induction of apoptosis in human HepG2 cells assessed as early apoptotic cells at IC50 concentration by annexin V-FITC/7-AAD staining based flow cytometric analysis (reference value: 0.0 %); type: functional
[13] = Inhibition of cell migration in human […] cells at IC50 concentration incubated for 24 hrs relative to control; type: functional
HepG2 [14] = assay: Induction of apoptosis in human HepG2 cells assessed as late apoptotic cells at IC50 concentration by annexin V-FITC/7-AAD staining based flow cytometric analysis (reference value: 0.3 %); type: functional
MCF7 [15] = assay: Induction of morphological changes in human MCF7 cells assessed as appearance of hyper chromatic nuclei at IC50 concentration; type: functional, cell-based
HepG2 [16] = assay: Induction of morphological changes in human HepG2 cells assessed as appearance of vesicular nuclei at IC50 concentration; type: functional, cell-based
MCF7 [17] = assay: Antiproliferative activity against human MCF7 cells assessed as inhibition of cell growth; type: functional, cell-based
U2OS [18] = assay: Induction of morphological changes in human U2OS cells assessed as cell enlargement with vacuolated cytoplasm at IC50 concentration; type: functional, cell-based
HepG2 [19] = assay: Induction of apoptosis in human HepG2 cells assessed as fold increase in p21 level by Western blot analysis; type: functional
U2OS [20] = assay: Induction of morphological changes in human U2OS cells assessed as appearance of degenerative features at IC50 concentration; type: functional, cell-based
HepG2 [21] = assay: Induction of apoptosis in human HepG2 cells assessed as apoptotic cells at IC50 concentration by annexin V-FITC/7-AAD staining based flow cytometric analysis (reference value: 0.28 %); type: functional
U2OS [22] = assay: Antiproliferative activity against human U2OS cells assessed as change in cell viability at IC50 concentration; type: functional, cell-based
MCF7 [23] = assay: Antiproliferative activity against human MCF7 cells assessed as change in cell viability at IC50 concentration; type: functional, cell-based
[24] = Cytotoxicity against human WI-38 cells assessed as inhibition of cell growth; type: toxicity, cell-based
HepG2 [25] = assay: Induction of morphological changes in human HepG2 cells assessed as cell detachment at IC50 concentration; type: functional, cell-based
MCF7 [26] = assay: Induction of morphological changes in human MCF7 cells assessed as cell detachment at IC50 concentration; type: functional, cell-based
HepG2 [27] = assay: Antiproliferative activity against human HepG2 cells assessed as change in cell viability at IC50 concentration; type: functional, cell-based
MCF7 [28] = assay: Induction of morphological changes in human MCF7 cells assessed as appearance of degenerative features at IC50 concentration; type: functional, cell-based
HepG2 [29] = assay: Induction of morphological changes in human HepG2 cells assessed as appearance of hyper chromatic nuclei at IC50 concentration; type: functional, cell-based
MCF7 [30] = assay: Induction of morphological changes in human MCF7 cells assessed as appearance of dense nuclei at IC50 concentration; type: functional, cell-based
HepG2 [31] = assay: Inhibition of cell migration in human HepG2 cells assessed as wound confluence at IC50 concentration incubated for 4 hrs by scratch wound assay (reference value: 19.38 +/- 0.12 %); type: functional; parameters: scale not given: the % may be the effect or the level left
HepG2 [32] = assay: Antiproliferative activity against human HepG2 cells assessed as inhibition of cell growth; type: functional, cell-based
MCF7 [33] = assay: Induction of morphological changes in human MCF7 cells assessed as appearance of vesicular nuclei at IC50 concentration; type: functional, cell-based
MCF7 [34] = assay: Induction of morphological changes in human MCF7 cells assessed as cell enlargement with vacuolated cytoplasm at IC50 concentration; type: functional, cell-based
HepG2 [35] = assay: Induction of apoptosis in human HepG2 cells assessed as viable cells at IC50 concentration by annexin V-FITC/7-AAD staining based flow cytometric analysis (reference value: 99.7 %); type: functional
HepG2 [36] = assay: Induction of morphological changes in human HepG2 cells assessed as appearance of degenerative features at IC50 concentration; type: functional, cell-based
HepG2 [37] = assay: Induction of apoptosis in human HepG2 cells assessed as late apoptotic cells at IC50 concentration by annexin V-FITC/7-AAD staining based flow cytometric analysis (reference value: 0.0 %); type: functional
U2OS [38] = assay: Induction of morphological changes in human U2OS cells assessed as appearance of hyper chromatic nuclei at IC50 concentration; type: functional, cell-based
U2OS [39] = assay: Induction of morphological changes in human U2OS cells assessed as appearance of vesicular nuclei at IC50 concentration; type: functional, cell-based
U2OS [40] = assay: Induction of morphological changes in human U2OS cells assessed as cell detachment at IC50 concentration; type: functional, cell-based

Row | Compound | Activity (HepG2 [1]) [%] | Activity (HepG2 [3]) [%] | Activity (HepG2 [4]) [%] | IC50 (U2OS [5]) [µM] | Activity (HepG2 [6]) | Activity (U2OS [7]) | Activity (HepG2 [8]) [%] | fold change (FC) (HepG2 [9]) | Activity (HepG2 [10]) [%] | Activity (HepG2 [11]) | Activity (HepG2 [12]) [%] | Activity (HepG2 [14]) [%] | Activity (MCF7 [15]) | Activity (HepG2 [16]) | IC50 (MCF7 [17]) [µM] | Activity (U2OS [18]) | Activity (U2OS [20]) | Activity (HepG2 [21]) [%] | Activity (U2OS [22]) | Activity (MCF7 [23]) | also measured
1 | N=C(N)c1ccc(-c2ccc(-c3ccc(Cl)cc3)o2)nc1 | 46.65 | 43.6 | 33.72 | 1.73 | Active | Active | 9.2 | ~2.5 | 47.1 | Active | 54 | 16.9 | Active | Active | 1.64 | Active | Active | 70.5 | Active | Active | fold change (FC) (HepG2 [2]): ~2.3; inhibition (INH) [13]: ~55%; fold change (FC) (HepG2 [19]): ~3; IC50 [24]: 77 µM; Activity (HepG2 [25]): Active; Activity (MCF7 [26]): Active; Activity (HepG2 [27]): Active; Activity (MCF7 [28]): Active; Activity (HepG2 [29]): Active; Activity (MCF7 [30]): Active; Activity (HepG2 [31]): 14.19%; IC50 (HepG2 [32]): 1.55 µM; Activity (MCF7 [33]): Active; Activity (MCF7 [34]): Active; Activity (HepG2 [35]): 28.7%; Activity (HepG2 [36]): Active; Activity (HepG2 [37]): 0.4%; Activity (U2OS [38]): Active; Activity (U2OS [39]): Active; Activity (U2OS [40]): Active
2 | N=C(N)c1ccc(-c2ccc(-c3cc(Cl)cc(Cl)c3)o2)nc1 | 64.83 | 19.1 | 47.49 | 1.81 | Active | Active | 59.6 | ~2.5 | 20.6 | Active | 54 | 14.3 | Active | Active | 1.69 | Active | Active | 66.1 | Active | Active | IC50 [24]: 101 µM; Activity (HepG2 [25]): Active; Activity (MCF7 [26]): Active; Activity (HepG2 [27]): Active; Activity (MCF7 [28]): Active; Activity (HepG2 [29]): Active; Activity (MCF7 [30]): Active; Activity (HepG2 [31]): 14.4%; IC50 (HepG2 [32]): 1.87 µM; Activity (MCF7 [33]): Active; Activity (MCF7 [34]): Active; Activity (HepG2 [35]): 31.5%; Activity (HepG2 [36]): Active; Activity (HepG2 [37]): 0.1%; Activity (U2OS [38]): Active; Activity (U2OS [39]): Active; Activity (U2OS [40]): Active
3 | N=C(N)c1ccc(-c2ccc(-c3ccc(F)cc3)o2)nc1 | 42.09 | 39.1 | 32.89 | 1.72 | Active | Active | 19.4 | ~2.5 | 41.4 | Active | 47.4 | 10.6 | Active | Active | 1.6 | Active | Active | 59.3 | Active | Active | fold change (FC) (HepG2 [2]): ~3.1; inhibition (INH) [13]: ~55%; fold change (FC) (HepG2 [19]): ~5; IC50 [24]: 89 µM; Activity (HepG2 [25]): Active; Activity (MCF7 [26]): Active; Activity (HepG2 [27]): Active; Activity (MCF7 [28]): Active; Activity (HepG2 [29]): Active; Activity (MCF7 [30]): Active; Activity (HepG2 [31]): 14.07%; IC50 (HepG2 [32]): 1.06 µM; Activity (MCF7 [33]): Active; Activity (MCF7 [34]): Active; Activity (HepG2 [35]): 41.9%; Activity (HepG2 [36]): Active; Activity (HepG2 [37]): 0.1%; Activity (U2OS [38]): Active; Activity (U2OS [39]): Active; Activity (U2OS [40]): Active
